Test systems include KM20L2 colon; HOP-18 NSCLC; DMS 114 small cell lung; SNB-78 CNS; DLD-1 colon; DMS 273 small cell lung; XF 498 CNS; MDA-N; RXF-631 renal.
Common to all, as to assay: NCI anticancer screen, dose series, 48 h

Structures are written as SMILES.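 Protocol summary: plate cells (96-well), add compound at 5 concentrations, incubate 48 h, interpolate endpoints linearly. At the TGI there is no net growth.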

These results are taken from PubChem BioAssay (NCI).

With `O=S(O)CCCSSCCCCSSCCCS(=O)O`, the TGI with KM20L2 colon, in the experiment with HOP-18 NSCLC, with DMS 114 small cell lung, in the experiment on SNB-78 CNS, with DLD-1 colon and in the experiment with DMS 273 small cell lung was greater than 100 µM in each case. Besides, in the experiment on XF 498 CNS, the TGI is greater than 100 µM.

Regarding `Cn1c(N)cc(=O)nc1N`, the TGI with MDA-N was greater than 100 µM.

As to `O=C1OC2C(O)COC2(OCc2c[nH]c3ccccc23)C1O` (stereo unspecified) (tested in a mixture with another compound), the TGI in the experiment with KM20L2 colon, with HOP-18 NSCLC, in the experiment with DMS 114 small cell lung, in the experiment with SNB-78 CNS, in the experiment on DLD-1 colon and in the experiment on DMS 273 small cell lung was greater than 100 µM throughout. In the experiment with XF 498 CNS, this molecule displayed a TGI greater than 100 µM.

Take `COC(=O)c1c(OC(=O)c2ccccc2)noc1CC(=O)OC1C=CCCC1` (stereo unspecified): the TGI in the experiment on KM20L2 colon, in the experiment with HOP-18 NSCLC, with DMS 114 small cell lung, with SNB-78 CNS, in the experiment with DLD-1 colon and in the experiment with DMS 273 small cell lung was greater than 100 µM each time.

As for `C/C(=C1/N=C(c2ccccc2)OC1=O)c1cccs1`, the TGI in the experiment on MDA-N is greater than 100 µM.

Take `Nc1nc(N)c2nn(-c3ccc(C(=O)O)cc3)nc2n1`: in the experiment on MDA-N, the TGI was greater than 100 µM.

On to `O=C(Nc1cccc(Cl)c1)c1cc2cc(N=Nc3ccc(Br)cc3)ccc2oc1=O`, for which the TGI with KM20L2 colon was greater than 100 µM; in the experiment with HOP-18 NSCLC, greater than 100 µM; with DMS 114 small cell lung, 56.6 µM; in the experiment with SNB-78 CNS it was greater than 100 µM; in the experiment with DLD-1 colon, greater than 100 µM; in the experiment on DMS 273 small cell lung it was 55.6 µM. Further, the TGI with XF 498 CNS and with RXF-631 renal was greater than 100 µM each time.

`C/C=C\C(C)=C/C(C)C(=O)CC(O)CC1CC(=O)NC(=O)C1` (stereo unspecified) showed a TGI with MDA-N greater than 100 µM.

In the case of `COCC(O)CN1C(N)=NC(O)C1O` (stereo unspecified), the TGI in the experiment with KM20L2 colon, in the experiment on HOP-18 NSCLC, in the experiment on DMS 114 small cell lung, in the experiment with SNB-78 CNS and in the experiment on DLD-1 colon was greater than 100 µM in each case.

In the experiment with MDA-N, `O=C1C2=C(Nc3cc([N+](=O)[O-])ccc3N2)OC1c1c[nH]c2ccc(COc3ccccc3)cc12` (stereo unspecified) registered a TGI greater than 100 µM.

On to `COc1ccc2nccc(C3OC(=O)N4CCC(=O)CC34)c2c1` (stereo unspecified), for which the TGI with KM20L2 colon, in the experiment on SNB-78 CNS, in the experiment on XF 498 CNS and with RXF-631 renal was greater than 100 µM each time.

With `CCCCCC1C2C(=O)NC(=O)C1C(=O)NC2=O` (stereo unspecified), the TGI in the experiment with KM20L2 colon, in the experiment on DMS 114 small cell lung, with DLD-1 colon, in the experiment on DMS 273 small cell lung and in the experiment on XF 498 CNS was greater than 100 µM in each case.

For the molecule `O=[N+]([O-])c1ccc(-c2ccc(C3=Nn4c(nnc4-c4ccc(Cl)cc4)SC3)o2)cc1`, the TGI was greater than 100 µM in the experiment with KM20L2 colon; greater than 100 µM with HOP-18 NSCLC; greater than 100 µM in the experiment with DMS 114 small cell lung; greater than 100 µM with DLD-1 colon; greater than 100 µM in the experiment on DMS 273 small cell lung; 60.1 µM with XF 498 CNS. The molecule further came in with a TGI in the experiment with RXF-631 renal greater than 100 µM.

With `O=c1c2ccccc2nc(-c2ccccc2Cl)n1NC1OC(CO)C(O)C(O)C1O` (stereo unspecified), the TGI with KM20L2 colon, in the experiment with HOP-18 NSCLC, with DMS 114 small cell lung, in the experiment on SNB-78 CNS, in the experiment with DLD-1 colon and in the experiment on DMS 273 small cell lung was greater than 100 µM throughout. In the experiment on XF 498 CNS, the TGI is greater than 100 µM.

Consider `CC(=O)NC1C(=O)CC(c2ccccc2)N(C)C1c1ccccc1` (stereo unspecified), for which the TGI with KM20L2 colon, in the experiment on DMS 114 small cell lung, in the experiment on SNB-78 CNS, with DLD-1 colon, in the experiment with DMS 273 small cell lung and in the experiment with RXF-631 renal was greater than 100 µM in each case.

Regarding `CCCC1C2=C(C(=O)OC2=O)C2C(CC)CC3=C(C(=O)OC3=O)C12` (stereo unspecified), the TGI with MDA-N is greater than 100 µM.

`CC/C(=C(\c1ccccc1)c1ccc(OCC[N+](C)(C)C)cc1)c1ccccc1`: the TGI with KM20L2 colon came to 31.1 µM; in the experiment with HOP-18 NSCLC, 26.2 µM; in the experiment on DMS 114 small cell lung it was 21.7 µM; in the experiment on SNB-78 CNS, 34.3 µM; in the experiment on DLD-1 colon it was 37.9 µM; in the experiment with DMS 273 small cell lung it was 19.9 µM. In addition, the TGI with RXF-631 renal was 41 µM.

`O=C(CN1C(=O)c2ccccc2C1=O)NC1(C(=O)O)CCCC1` had a TGI in the experiment with MDA-N greater than 100 µM.

`Cc1ccc(S(=O)(=O)c2ccccn2)cc1`: the TGI with KM20L2 colon, in the experiment on HOP-18 NSCLC, with DMS 114 small cell lung, in the experiment on SNB-78 CNS, in the experiment with DLD-1 colon and in the experiment on DMS 273 small cell lung was greater than 100 µM in each case. Moreover, the TGI in the experiment on XF 498 CNS and with RXF-631 renal was greater than 100 µM in each case.

Take `CC[N+]1(C)CCC(O)(/C=C/c2ccccc2)C(C(=O)/C=C/c2ccccc2)C1` (stereo unspecified): the TGI in the experiment on KM20L2 colon was 49.3 µM; in the experiment with HOP-18 NSCLC, 31.3 µM; in the experiment with DMS 114 small cell lung it was 16.9 µM; in the experiment with SNB-78 CNS it was greater than 78.7 µM; in the experiment with DLD-1 colon it was 37.3 µM; with DMS 273 small cell lung, 47.3 µM. The TGI in the experiment with XF 498 CNS was found to be 26.7 µM; with MDA-N, 23.7 µM.

For `Cc1nc2c(=O)n(C)c(=O)nc-2n(-c2ccc(Cl)cc2)c1C`, the TGI in the experiment on KM20L2 colon, with HOP-18 NSCLC, with DMS 114 small cell lung, in the experiment with SNB-78 CNS, in the experiment with DLD-1 colon and in the experiment on DMS 273 small cell lung was greater than 100 µM throughout. Also, the TGI in the experiment with XF 498 CNS and in the experiment on RXF-631 renal was greater than 100 µM in each case.

For the molecule `S=C(N/N=C/c1ccccc1)NC1CC(c2ccccc2)Oc2ccccc21` (stereo unspecified), the TGI with DMS 114 small cell lung was greater than 100 µM; in the experiment with SNB-78 CNS, 96.1 µM; in the experiment with DLD-1 colon, greater than 100 µM; in the experiment with DMS 273 small cell lung, greater than 100 µM; in the experiment with XF 498 CNS it was greater than 100 µM.

Molecule `COc1cc(OC)c(-c2oc3ccccc3c(=O)c2O)c(OC)c1` yielded a TGI with MDA-N of 2.93 µM.
